PubChem BioAssay (NCI)
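Values below derive from 48-hour exposures of cells grown in 96-well plates, with endpoints linearly interpolated between the two concentrations bracketing the appropriate inhibition level. GI50: concentration for 50% inhibition of growth. TGI: total growth inhibition.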

Legend:
Experiment in all cases: NCI anticancer screen, dose series, 48 h
DU-145 prostate = tested on: DU-145 prostate
IGROV1 ovarian = tested on: IGROV1 ovarian
MDA-MB-231 breast = tested on: MDA-MB-231 breast
NCI-H522 lung = tested on: NCI-H522 lung
SK-MEL-2 melanoma = tested on: SK-MEL-2 melanoma
SK-MEL-28 melanoma = tested on: SK-MEL-28 melanoma
SN12C renal = tested on: SN12C renal
TK-10 renal = tested on: TK-10 renal
K-562 leukemia = tested on: K-562 leukemia
MALME-3M melanoma = tested on: MALME-3M melanoma

SMILES	GI50 (DU-145 prostate) [µM]	TGI (DU-145 prostate) [µM]	GI50 (IGROV1 ovarian) [µM]	TGI (IGROV1 ovarian) [µM]	GI50 (MDA-MB-231 breast) [µM]	TGI (MDA-MB-231 breast) [µM]	GI50 (NCI-H522 lung) [µM]	TGI (NCI-H522 lung) [µM]	GI50 (SK-MEL-2 melanoma) [µM]	TGI (SK-MEL-2 melanoma) [µM]	GI50 (SK-MEL-28 melanoma) [µM]	TGI (SK-MEL-28 melanoma) [µM]	GI50 (SN12C renal) [µM]	TGI (SN12C renal) [µM]	GI50 (TK-10 renal) [µM]	TGI (TK-10 renal) [µM]	TGI (K-562 leukemia) [µM]	TGI (MALME-3M melanoma) [µM]	GI50 (K-562 leukemia) [µM]	GI50 (MALME-3M melanoma) [µM]
COC12C=C/C(=C(/C(=O)OCc3ccncc3)C(=O)CCCCCCCCC3(OC)C=C/C(=C(/C(=O)OCc4ccncc4)C(=O)CCCCCCCC1)O3)O2	0.709	2.29	0.316	2.14	0.686	6.51	0.564	1.76	1.08	3.05	0.29	1.79	0.471	3.89	1.6	3.67	–	–	–	–
Cc1ccc(Cn2c(C)nc3c2C(=O)c2ccccc2C3=O)cc1	–	–	–	> 100	–	–	–	18.1	–	45.6	–	> 100	–	> 100	–	80.8	> 100	34.3	–	–
Cc1ccc(S(=O)(=O)N/N=C/c2oc(-c3ccncc3)c(-c3ccncc3)c2[N+](=O)[O-])cc1	–	–	–	> 100	–	–	–	> 100	–	> 100	–	> 100	–	> 100	–	> 100	> 100	> 100	–	–
O=C(NCCCCN=c1cccccc1NCCCCNC(=O)OCc1ccccc1)OCc1ccccc1	–	–	–	54.1	–	–	–	36.8	–	36.9	–	39.6	–	51.6	–	53.9	33.4	40.6	–	–
CC1=C2CCCC2=C/C(=N/Nc2ccc([N+](=O)[O-])cc2[N+](=O)[O-])CC1	–	–	–	> 100	–	–	–	> 100	–	> 100	–	> 100	–	> 100	–	> 100	> 100	> 100	–	–
O=[N+]([O-])c1ccc(-n2nnc(C3=NCCN3)c2-c2ccc(Cl)cc2)cc1	–	–	–	> 100	–	–	–	> 100	–	> 100	–	> 100	–	> 100	–	> 100	> 100	> 100	–	–
O=c1cc2oc3cc(O)c(O)cc3c(-c3ccccc3O)c-2cc1O	22.8	> 100	6.73	> 100	10.2	> 100	–	–	36.8	> 100	37.2	> 100	10.7	> 100	21.9	> 100	> 100	> 100	5.76	53
Cc1csc(Nc2nc(-c3cccc(Br)c3)nc(C(Cl)(Cl)Cl)n2)n1	0.419	3.21	> 100	> 100	2.78	> 100	> 100	> 100	> 100	> 100	3.48	> 100	–	–	2.25	> 100	> 100	> 100	> 24.9	> 100
O=C(N/N=C1/C(=O)N(c2ccc(Cl)cc2Cl)C(=O)C(=O)C1c1nc2ccccc2o1)c1ccccc1O (stereo not drawn)	–	–	–	> 100	–	–	–	87.7	–	> 100	–	71	–	> 100	–	> 100	> 100	78.6	–	–
C1CSCCSCCS1	–	> 100	–	> 100	–	> 100	–	> 100	–	–	–	> 100	–	> 100	–	> 100	> 100	–	–	–
CC(=O)n1c2c(c(=O)n1-c1ccccc1)S(=O)CCC2 (stereo not drawn)	–	–	–	> 100	–	–	–	16.3	–	> 100	–	> 100	–	> 100	–	> 100	> 100	> 100	–	–
COc1cc(C2c3cc4c(cc3C(O)C(CO)C2CO)OCO4)cc(OC)c1OC (stereo not drawn)	0.965	15.4	0.551	> 25.9	3.69	> 100	0.38	–	–	> 100	1.6	> 100	4.94	> 100	> 23.2	> 100	> 100	–	0.432	–
COc1ccc(-c2oc(=O)ccc2-c2cc(OC)c(OC)c(OC)c2)cc1F	32	> 100	–	–	16	> 100	3.04	23.6	6.98	> 100	24.7	> 100	38.1	> 100	39.4	> 100	> 100	> 100	4.08	3.24
CCCNC(=S)/N=C/c1c(O)c2ccccc2[nH]c1=O	–	> 100	–	> 100	–	> 100	–	> 100	–	> 100	–	–	–	> 100	–	> 100	> 100	–	–	–
N#Cc1c(-c2ccc(F)cc2)c(-c2ccc(F)cc2)nn(CCO)c1=O	–	4.42	–	> 87.4	–	> 71	–	–	–	–	–	> 100	–	> 100	–	> 100	> 100	> 100	–	–
CC(=O)O[C@H]1CCC2[C@@H]3CCC4=C(O)c5nocc5C[C@]4(C)C3CC[C@@]21C (stereo partly drawn)	–	–	–	> 100	–	–	–	> 100	–	> 100	–	> 100	–	> 100	–	> 100	> 100	> 100	–	–
CCOc1ccc2nc(S/C(=C/C=C(C#N)C#N)c3ccc(C)cc3)sc2c1	40.5	> 100	54.5	> 100	17.8	43.4	20.8	49.3	–	–	31.1	> 100	18.1	46.4	27.2	94.6	55	> 100	5.28	33
C=CC(=O)N1CCC(C2CCNc3c(C(N)=O)c(-c4ccc(Oc5ccccc5)cc4)nn32)CC1 (stereo not drawn)	11.6	> 100	0.796	16.9	19.2	92.5	4.93	22.7	20.3	40.4	18.7	45.1	13.4	> 100	1.29	11.6	–	34.6	–	14
O=c1[nH]cc(COCCO)c(=O)[nH]1	–	–	–	> 100	–	–	–	> 100	–	> 100	–	> 100	–	> 100	–	> 100	> 100	> 100	–	–
